This note sets out measurements from patent US9724350B2, “N,6-bis(aryl or heteroaryl)-1,3,5-triazine-2,4-diamine compounds as IDH2 mutants inhibitors for the treatment of cancer” (Agios Pharmaceuticals, Inc., priority 2013, dated 2017).

The IC50 is the concentration at which inhibition is half-maximal. High values mean a need for much substance, low ones inhibition by little substance.

Molecules are shown by their SMILES.

One test has as its target T1, IDH2 R140Q (Homo sapiens, UniProt P48735, R140Q).
T1 sequence (P48735 40-452 R140Q): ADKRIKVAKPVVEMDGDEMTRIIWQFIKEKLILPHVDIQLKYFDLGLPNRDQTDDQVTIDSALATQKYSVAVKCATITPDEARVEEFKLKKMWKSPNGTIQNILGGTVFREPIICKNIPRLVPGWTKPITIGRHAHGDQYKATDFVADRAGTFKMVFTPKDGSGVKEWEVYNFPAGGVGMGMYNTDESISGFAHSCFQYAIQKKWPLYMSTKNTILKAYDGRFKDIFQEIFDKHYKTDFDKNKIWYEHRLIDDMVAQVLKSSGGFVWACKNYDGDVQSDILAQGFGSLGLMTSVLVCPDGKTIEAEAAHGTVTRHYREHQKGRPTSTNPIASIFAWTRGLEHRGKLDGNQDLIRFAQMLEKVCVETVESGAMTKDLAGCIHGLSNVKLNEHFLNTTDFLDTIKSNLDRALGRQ
Description: IDH2 R140Q enzymatic assay (cofactor depletion, diaphorase/resazurin). Format: biochemical. The following applies: 16 hours preincubation time. A general note: Resazurin is reduced to fluorescent resorufin, in cell work by metabolically active cells.

The test system of test [1] is U87MG pLVX-IDH2 R140Q-neo cells. Description: U87MG pLVX-IDH2 R140Q-neo cell based assay (2-HG by LC-MS). The following applies: Homo sapiens, U-87 MG. How it is done:
U87MG pLVX-IDH2 R140Q-neo cells are grown in T125 flasks in DMEM containing 10% FBS, 1× penicillin/streptomycin and 500 μg/mL G418. They are harvested by trypsin and seeded into 96 well white bottom plates at a density of 5000 cell/well in 100 μl/well in DMEM with 10% FBS. No cells are plated in columns 1 and 12. Cells are incubated overnight at 37° C. in 5% CO2. The next day compounds are made up at 2× concentration and 100 ul are added to each cell well. The final concentration of DMSO is 0.2% and the DMSO control wells are plated in row G. The plates are then placed in the incubator for 48 hours. At 48 hours, 100 ul of media is removed from each well and analyzed by LC-MS for 2-HG concentrations. The cell plate is placed back in the incubator for another 24 hours. At 72 hours post compound addition, 10 mL/plate of Promega Cell Titer Glo reagent is thawed and mixed. The cell plate is removed from the incubator and allowed to equilibrate to room temperature. Then 100 ul of reagent is added to each well of media. The cell plate is then placed on an orbital shaker for 10 minutes and then allowed to sit at room temperature for 20 minutes. The plate is then read for luminescence with an integration time of 500 ms to determine compound effects on growth inhibition.

For the molecule `Nc1nc(Nc2ccnc(C(F)(F)F)c2)nc(-c2cccc(C(F)(F)F)n2)n1` [Compound 378, 6-(6-(trifluoromethyl)pyridin-2-yl)-N2-(2-(trifluoromethyl)pyridin-4-yl)-1,3,5-triazine-2,4-diamine], the IC50 (on IDH2 R140Q; in test [1]) was under 50 nM throughout.
